Laboratory results from ChEMBL document CHEMBL5236618, “Discovery and Optimization of Potent, Selective, and Brain-Penetrant 1-Heteroaryl-1H-Indazole LRRK2 Kinase Inhibitors for the Treatment of Parkinson's Disease” (J Med Chem, 2022).

How the values were obtained:
[1] = Clearance in rat at 0.1 mg/kg, iv administered as cassette dose measured upto 24 hrs by LC-MS/MS method; format: ADME, organism-based; conditions: in vivo
[2] = Unbound clearance in rat at 0.1 mg/kg, iv administered as cassette dose measured upto 24 hrs by LC-MS/MS method; format: ADME, organism-based; conditions: in vivo
[3] = Mean residence time in rat at 0.1 mg/kg, iv administered as cassette dose measured upto 24 hrs by LC-MS/MS method; format: ADME, organism-based; conditions: in vivo
[4] = Unbound clearance in dog at 3 mg/kg, po or 0.5 mg/kg, iv measured upto 24 hrs by LC-MS/MS method; format: ADME, organism-based, Canis lupus familiaris; conditions: in vivo
[5] = Mean residence time in rat at 10 mg/kg, po or 2 mg/kg, iv measured upto 24 hrs by LC-MS/MS method; format: ADME, organism-based; conditions: in vivo
[6] = Unbound brain-to-plasma concentration ratio in rat; format: ADME, cell-free; conditions: read-out: K(p,uu,brain)
[7] = Mean residence time in dog at 3 mg/kg, po or 0.5 mg/kg, iv measured upto 24 hrs by LC-MS/MS method; format: ADME, organism-based, Canis lupus familiaris; conditions: in vivo
[8] = Oral bioavailability in dog at 3 mg/kg measured upto 24 hrs by LC-MS/MS method; format: ADME, organism-based, Canis lupus familiaris; conditions: in vivo
[9] = Unbound clearance in rhesus monkey at 2 mg/kg, iv measured upto 24 hrs by LC-MS/MS method; format: ADME, organism-based, Macaca mulatta; conditions: in vivo
[10] = Mean residence time in rhesus monkey at 2 mg/kg, iv measured upto 24 hrs by LC-MS/MS method; format: ADME, organism-based, Macaca mulatta; conditions: in vivo
[11] = Oral bioavailability in rat at 10 mg/kg measured upto 24 hrs by LC-MS/MS method; format: ADME, organism-based; conditions: in vivo
[12] = Clearance in rhesus monkey at 2 mg/kg, iv measured upto 24 hrs by LC-MS/MS method; format: ADME, organism-based, Macaca mulatta; conditions: in vivo
[13] = Unbound clearance in rat at 10 mg/kg, po or 2 mg/kg, iv measured upto 24 hrs by LC-MS/MS method; format: ADME, organism-based; conditions: in vivo
[14] = Unbound brain-to-plasma concentration ratio in non human primates; format: ADME, cell-free; conditions: read-out: K(p,uu,brain)

Row | clearance [1] | CL free [2] | MRT [3] | CL free [4] | MRT [5] | Kp uu [6] | MRT [7] | bioavailability [8] | CL free [9] | MRT [10] | bioavailability [11] | clearance [12] | CL free [13] | Kp uu [14] | SMILES
1 | 98 mL/min/kg | 5850 mL/min/kg | 0.5 h | – | – | – | – | – | – | – | – | – | – | – | C[C@@H]1CN(c2cc(-c3ncc4ccc(-c5cnn(C)c5)cn34)ccn2)C[C@H](C)O1
2 | – | – | – | 3200 mL/min/kg | 2 h | 0.5 | 7 h | 100% | 3400 mL/min/kg | 1.5 h | 38% | 16 mL/min/kg | 12700 mL/min/kg | 0.4 | C[C@@H]1CN(c2cc(-c3n[nH]c4ccc(OC5(C)CC5)cc34)ncn2)C[C@H](C)O1 [MLi-2]
